# Test results published in patent US11123323B2, “Monoterpenes for treating respiratory disorders, in particular bronchopulmonary disorders” (Maria Clemetine Martin Klosterfrau Vertriebsqesellschaft MBH, priority 2008, dated 2021).
# How the values were obtained:
# [1] = tested on: IL-1beta production in LPS-stimulated human monocytes; assay: LPS-stimulated production of IL-1beta in human monocytes in vitro (ELISA); format: cell-based
# Excerpt: 1,8-Cineol intensifies in particular the action of subtherapeutic concentrations of beclometasone which are relevant for the peripheral respiratory tract.
# [2] = tested on: production of IL-8 in ex-vivo stimulated peripheral human monocytes; assay: IL-8 production in ex-vivo stimulated peripheral monocytes of former smokers under additional therapy; format: cell-based; details: long-term additional therapy with 1,8-cineol plus ICS-based therapy
# Description: (§1) From these patients, monocytes were obtained during ongoing therapy with ICS and incubated in vitro with a topical glucocorticoid in a dose-dependent manner.
# [3] = tested on: hydrogen peroxide (H2O2) production; assay: Hydrogen peroxide production; details: low concentrations relevant for the respiratory air and therapeutic range
# [4] = tested on: smokers with COPD (GOLD II to III); assay: Placebo-controlled double-blind study of additional therapy with 1,8-cineol in smokers with COPD; format: in vivo, human
# Description: In a placebo-controlled double-blind study, the effect of an additional therapy with 1,8-cineol in the form of capsules which dissolve in the small intestine (Soledum® capsules, 3×200 mg/day, oral) on exacerbation rate and lung function was examined in 3 winter months of two successive years using 242 smokers with COPD (GOLD II to III).
# [5] = tested on: patients with persistent bronchial asthma (GINA III); assay: Clinical add-on therapy with oral 1,8-cineol, persistent bronchial asthma GINA III, 12 patients; format: in vivo, human
# Excerpt: Even after a one-week therapy at the dose mentioned above, in 9 of the 12 subjects a slight to moderate improvement of lung function was achieved. After continuing therapy for a further twelve weeks, the persistent bronchial asthma had stabilized to such an extent that in 9 of the 12 patients the inhalative glucocorticoid required could be reduced by up to 30%.
# [6] = tested on: production of TNF-α in ex-vivo stimulated peripheral human monocytes; assay: TNF-α production in ex-vivo stimulated peripheral monocytes of former smokers under additional therapy; format: cell-based; details: long-term additional therapy with 1,8-cineol plus ICS-based therapy
# Description: as §1
# [7] = tested on: superoxide dismutases (SOD); assay: Superoxide dismutase activity
# [8] = tested on: FCS-stimulated production of superoxides (O2^−) in normal human monocytes; assay: FCS-stimulated superoxide production of normal human monocytes in vitro (INT-formazan); format: cell-based; details: for INT-Formazan / O2^−: FCS 10%; for INT-Formazan / Comparison to control (%): Table 4 series
# Description: As already described, monocytes were isolated from 50 ml of venous blood which was repeatedly donated voluntarily for the experiments by healthy non-smoking subjects (n=4). […] To this end, the active compounds were incubated together with freshly isolated monocytes (10^5/ml) and the FCS stimulus (10%, from Sigma) for 20 hours in a cell culture medium (RPMI-1640, from Sigma). […] The determination of the cytosolic superoxide production is based on the reduction of the dye p-iodonitrotetrazolium violet (INTV), which reacts specifically with superoxide ions, to iodonitrotetrazolium formazan (formazan). INTV is taken up by the cells into the cytosol. Intracellularly, the nitrogen cycle of the INTV is reduced by free superoxide radicals, giving rise to a water-soluble intermediate and the water-insoluble formazan, which have their absorption maxima at 505 and 490 nm, respectively. […] At the end of an experiment, the cell lysate is (after treatment with hydrochloric acid) measured at 492 nm in a photometer. Here, the absorption of light is proportional to the amount of intracellularly accumulated INT-formazan which can then be determined using a formazan calibration curve. The INT-formazan accumulation for its part is determined as a measure for the intracellular production of superoxide.
# [9] = tested on: superoxide production (O2^− production) of normal human monocytes; assay: PMA-stimulated superoxide production (INT-formazan) of normal human monocytes in vitro; format: cell-based; details: for INT-Formazan: PMA, 20 hours; for O2^− production: FIG. 3
# [10] = tested on: NO production in stimulated human monocytes; assay: NO production in stimulated human monocytes in vitro (FIG. 3); format: cell-based
# [11] = 1,8-cineol 6 × 10^−6 mol/l (0.9 μg/ml), Table 6 series
# [12] = therapeutic range of 1,8-cineol
smiles,measurement,setting,value
"CC12CCC(CC1)C(C)(C)O2 [1,8-cineol, 1,3,3-trimethyl-2-oxabicyclo-[2.2.2]-octane]","production of IL-1beta, change","[1]; 1,8-cineol on its own, 10^−6 mol/l, FIG. 1",−32%
same,Effect vs. control Inhibition (%),[1]; cineol 10^−6 mol/l,32.4±17%
same,Effect vs. cineol 10^−6 mol/l Inhibition (%),[1]; cineol 10^−6 mol/l (the reference itself),0 ± 17%
same,IL-1beta,"[1]; cineol 10^−6 mol/l, LPS, 20 hours",3548 ± 600 Pg/5 × 10^4 cells
same,Effect vs. control Inhibition (%),"[1]; cineol 10^−6 mol/l, listed as cineol",32.4 ± 17%
same,LPS-stimulated production of IL1-beta compared to the LPS control,"[1]; therapeutically relevant concentrations of 1,8-cineol, FIG. 2, p<0.01","inhibited by therapeutically relevant concentrations of 1,8-cineol in a dose-dependent manner and significantly"
same,production of IL-8 compared to normal monocytes of nonsmokers,[2],increased production of IL-8
same,production of H2O2,[3],inhibited the production of O2^− radicals and H2O2
same,"St. George's Respiratory Questionnaire (SGRQ), change in the verum group","[4]; 3×200 mg/day, oral",−10.4 units
same,"lung function (FEV1), change in the verum group","[4]; 3×200 mg/day, oral",+5.1%
same,reduction in the exacerbation rate compared to the placebo group,"[4]; 3×200 mg/day, oral, 3 winter months of two successive years, 242 smokers",−38.5%
same,further reduction of the frequency of exacerbations beyond known combined therapies,[4]; additional therapy with capsules which dissolve in the small intestine,25%
same,tolerability,[5]; 4×200 mg/day orally,"tolerated well, without any side-effects"
same,subjects with a slight to moderate improvement of lung function,"[5]; 4×200 mg/day orally, after one week, add-on to beclometasone, salmeterol, theophyllin",9 of the 12
same,patients in whom the inhalative glucocorticoid required could be reduced,[5]; after a further twelve weeks,9 of the 12
same,reduction of the betamimetics required,[5]; after a further twelve weeks,up to 25%
same,reduction of the inhalative glucocorticoid required,[5]; after a further twelve weeks,up to 30%
same,patients in whom the betamimetics required could be reduced,[5]; of 12 patients treated,4
same,production of TNF-α compared to normal monocytes of nonsmokers,[6],inhibition of the production of TNF-α
same,superoxide dismutase activity,[7],partially inhibited
same,INT-Formazan,[8]; 0.000015 μg/ml (10^−10 mol/l),21360 ± 1766 nmol/10^5
same,Comparison to control (%),[8]; 0.000015 μg/ml (10^−10 mol/l),−0.7 ± 8%
same,INT-Formazan,[8]; 0.00015 μg/ml (10^−9 mol/l),21329 ± 1920 nmol/10^5
same,Comparison to control (%),[8]; 0.00015 μg/ml (10^−9 mol/l),−0.8 ± 9%
same,INT-Formazan,[8]; 0.0015 μg/ml (10^−8 mol/l),21946 ± 1858 nmol/10^5
same,Comparison to control (%),[8]; 0.0015 μg/ml (10^−8 mol/l),2 ± 8%
same,INT-Formazan,[8]; 0.015 μg/ml (10^−7 mol/l),21899 ± 1879 nmol/10^5
same,Comparison to control (%),[8]; 0.015 μg/ml (10^−7 mol/l),1.8 ± 8%
same,INT-Formazan,[8]; 0.15 μg/ml (10^−6 mol/l),22286 ± 2036 nmol/10^5
same,Comparison to control (%),[8]; 0.15 μg/ml (10^−6 mol/l),3.6 ± 9%
same,INT-Formazan,[8]; 0.3 μg/ml (2 × 10^−6 mol/l),21499 ± 1959 nmol/10^5
same,Comparison to control (%),[8]; 0.3 μg/ml (2 × 10^−6 mol/l),0.04 ± 9%
same,INT-Formazan,[8]; 0.6 μg/ml (4 × 10^−6 mol/l),17240 ± 1637 nmol/10^5
same,Comparison to control (%),[8]; 0.6 μg/ml (4 × 10^−6 mol/l),−19.8 ± 9%
same,INT-Formazan,[8]; 0.9 μg/ml (6 × 10^−6 mol/l),12341 ± 1061 nmol/10^5
same,Comparison to control (%),[8]; 0.9 μg/ml (6 × 10^−6 mol/l),−42.6±8%
same,Comparison to control (%),"[8]; 0.9 μg/ml (6 × 10^−6 mol/l), listed as 1,8-Cineol",−42.6 ± 8%
same,INT-Formazan,[8]; 1.2 μg/ml (8 × 10^−6 mol/l),10086 ± 701 nmol/10^5
same,Comparison to control (%),[8]; 1.2 μg/ml (8 × 10^−6 mol/l),−53.1 ± 7%
same,INT-Formazan,[8]; 1.5 μg/ml (10^−5 mol/l),10202 ± 915 nmol/10^5
same,Comparison to control (%),[8]; 1.5 μg/ml (10^−5 mol/l),−52.6 ± 9%
same,O2^−,"[8]; 1,8-cineol 4 × 10^−6 mol/l (0.6 μg/ml), Table 5 series",16323 ± 1069 nmol/mL
same,O2^−,[8]; [11],9347 ± 494 nmol/mL
same,Percent of control,[8]; [11],−50.2±5%
same,lowest antioxidatively active concentration,[8]; FCS-stimulated O2^− production,6e-06 mol/L
same,inhibition of the production of O2^− radicals,"[8]; therapeutically relevant concentrations of 1,8-cineol, summary",about 50%
same,Comparison with control (%),[9]; 0.0015 μg/ml (10^−8 mol/l),+27.6 ± 4%
same,INT-Formazan,[9]; 0.0015 μg/ml (10^−8 mol/l),5.364 ± 229 nmol/10^5
same,Comparison with control (%),[9]; 0.015 μg/ml (10^−7 mol/l),+24.5 ± 6%
same,INT-Formazan,[9]; 0.015 μg/ml (10^−7 mol/l),5235 ± 341 nmol/10^5
same,Comparison with control (%),[9]; 0.15 μg/ml (10^−6 mol/l),+26.7 ± 7%
same,INT-Formazan,[9]; 0.15 μg/ml (10^−6 mol/l),5327 ± 360 nmol/10^5
same,Comparison with control (%),[9]; 0.3 μg/ml (2 × 10^−6 mol/l),+31.8 ± 6%
same,INT-Formazan,[9]; 0.3 μg/ml (2 × 10^−6 mol/l),5540 ± 359 nmol/10^5
same,Comparison with control (%),[9]; 0.6 μg/ml (4 × 10^−6 mol/l),+43.8 ± 9%
same,INT-Formazan,[9]; 0.6 μg/ml (4 × 10^−6 mol/l),6045 ± 534 nmol/10^5
same,Comparison with control (%),[9]; 0.9 μg/ml (6 × 10^−6 mol/l),+45.3 ± 7%
same,INT-Formazan,[9]; 0.9 μg/ml (6 × 10^−6 mol/l),6107 ± 437 nmol/10^5
same,Comparison with control (%),[9]; 1.2 μg/ml (8 × 10^−6 mol/l),−2.5 ± 6%
same,INT-Formazan,[9]; 1.2 μg/ml (8 × 10^−6 mol/l),4099 ± 234 nmol/10^5
same,Comparison with control (%),[9]; 1.5 μg/ml (10^−5 mol/l),−42 ± 16%
same,INT-Formazan,[9]; 1.5 μg/ml (10^−5 mol/l),2438 ± 389 nmol/10^5
same,Comparison with control (%),[9]; 3 μg/ml (2 × 10^−5 mol/l),−84.9 ± 22%
same,INT-Formazan,[9]; 3 μg/ml (2 × 10^−5 mol/l),634 ± 139 nmol/10^5
same,O2^− production,"[9]; low concentrations of 1,8-cineol",slightly induce O2^− production
same,O2^− production,[9]; [12],inhibited strongly
same,production of NO,[10]; subtherapeutic concentrations (0.15 μg/ml=10^−6 mol/l),inhibit the production of NO
same,production of NO,[10]; [12],stimulating effects on the production of NO
